Laboratory results: patent US20030225081A1, “Pyridazinones and triazinones and medicinal use thereof” (priority 2000, published 2003)

Assays:
[1] = test system: AMPA receptor; assay: Suppressing action to calcium influx into nerve cells induced by AMPA; assay type: cell-based; settings: Fura2-AM, stimulation with 2 μM AMPA, primary culture of rat embryo cerebral cortex nerve cells, 1 μM MK-801
Text: Suppressing Action to Calcium Influx into Nerve Cells Induced by AMPA
The suppressing action of the compounds of the present invention to calcium influx into nerve cells induced by AMPA was investigated using the primary culture system of nerve cells of cerebral cortex of embryo of rat.
Cerebral cortex was cut out from the brain of rat of gestational 18 days and treated with trypsin and DNase to disperse the cells. The cells were flown by MEM containing 10% of serum, sown in a culture bottle and astrocytes were proliferated. The astrocytes were re-dispersed by trypsin and sown in a 96-well plate. After incubation for one week, it was confirmed that the astrocytes covered all over the bottom and then the nerve cells of cerebral cortex which was dispersed by the above method were sown thereupon. After incubation for 24 hours, the medium was changed, the incubation was carried out for one week and, after that, the medium was changed to that containing 1 μM of MK-801. Nerve cells which were incubated for not shorter than 8 to 10 days were used.
Calcium influx into the cells was measured using Fura2-AM which was a calcium-sensitive fluorescent dye. It was treated in a medium containing Fura2-AM for 1 hour, incorporated into the cells, exchanged to a Tyrode solution containing 1 μM MK-801 and stimulation was carried out using 2 μM AMPA. Change in the amount of calcium flown into the cells were measured as the change in the fluorescent intensity at the exciting wave length of 340/380 nm. […] As the control compound, GYKI52466 (Le Peillet, et al., Brain Res., 571, 115, 1992) was used.

[2] = test system: convulsion induced by AMPA; assay: Anticonvulsant action induced by AMPA; assay type: in vivo, mice of ddy strain; settings: 25 mg/kg orally, mice; AMPA injected into lateral ventricle 30 minutes or 1 hour after administration
Method: Anticonvulsant Action Induced by AMPA A test compound was suspended in a 0.5% methyl cellulose solution or in sesame oil and was orally administered (25 mg/kg) to male mice of ddy strain. After 30 minutes or 1 hour from the oral administration, AMPA was continuously injected ([…]/5 μl/minute/mouse) into lateral ventricle to induce the convulsions. The effect was judged by a time-extending action until the convulsion takes place by a continuous injection of AMPA.

Row | Structure (SMILES) | IC50 [1] [nM] | anticonvulsant action (time-extending action until the convulsion takes place) [2]
1 | N#Cc1ccccc1-n1nc2c(c(-c3cccnc3)c1=O)COc1ccccc1-2 [Example 9, 2-(2-Cyanophenyl)-4-(3-pyridyl)-2,3-dihydro-5H-(1)benzopyrano[4,3-c]pyridazin-3-one] | 20 | significantly inhibited the convulsion induced by AMPA
2 | O=C1C(c2ccccc2O)CC(c2ccccn2)=NN1c1ccccc1Br (stereo not shown) [Example 29, 2-(2-Bromophenyl)-4-(2-hydroxyphenyl)-6-(2-pyridyl)-4,5-dihydro-3 (2H)-pyridazinone] | 100 | significantly inhibited the convulsion induced by AMPA
3 | N#Cc1ccccc1-n1nc(-c2ccccn2)cc(-c2cccnc2)c1=O [Example 45, 2-(2-Cyanophenyl)-4-(3-pyridyl)-6-(2-pyridyl)-3 (2H)-pyridazinone] | 200 | significantly inhibited the convulsion induced by AMPA
4 | O=c1c(-c2cccnc2)cc(-c2ccccn2)nn1-c1ccccc1 [Example 59, 2-Phenyl-4-(3-pyridyl)-6-(2-pyridyl)-3 (2H)-pyridazinone] | 600 | significantly inhibited the convulsion induced by AMPA
5 | O=C1N(c2ccccc2)CC(c2ccccn2)=NN1c1ccccc1Br [Example 88, 2-(2-Bromophenyl)-4-phenyl-6-(2-pyridyl)-4,5-dihydro-1,2,4-triazin-3 (2H)-one] | 100 | significantly inhibited the convulsion induced by AMPA
6 | COc1ccccc1C1=NN(c2ccccc2C#N)C(=O)N(c2ccccc2)C1 [Example 97, 2-(2-Cyanophenyl)-6-(2-methoxyphenyl)-4-phenyl-4,5-dihydro-1,2,4-triazin-3 (2H)-one] | 700 | significantly inhibited the convulsion induced by AMPA
7 | N#Cc1ccccc1N1N=C(c2ccccn2)CN(c2ccccc2)C1=O [Example 100, 2-(2-Cyanophenyl)-4-phenyl-6-(2-pyridyl)-4,5-dihydro-1,2,4-triazin-3 (2H)-one] | 50 | significantly inhibited the convulsion induced by AMPA
8 | N#Cc1ccccc1N1N=C(c2ccccn2)CN(c2ccsc2)C1=O [Example 101, 2-(2-Cyanophenyl)-6-(2-pyridyl)-4-(thiophene-3-yl)-4,5-dihydro-1,2,4-triazin-3 (2H)-one] | 100 | 
9 | N#Cc1ccccc1N1N=C(c2ccccn2)CN(c2ccccn2)C1=O [Example 102, 2-(2-Cyanophenyl)-6-(2-pyridyl)-4-(2-pyridyl)-4,5-dihydro-1,2,4-triazin-3 (2H)-one] | 100 | significantly inhibited the convulsion induced by AMPA
10 | N#Cc1ccccc1N1N=C(c2ccccn2)CN(c2cccnc2)C1=O [Example 103, 2-(2-Cyanophenyl)-6-(2-pyridyl)-4-(3-pyridyl)-4,5-dihydro-1,2,4-triazin-3 (2H)-one] | 100 | significantly inhibited the convulsion induced by AMPA
11 | N#Cc1ccccc1N1CC(c2ccccn2)=NN(c2ccccc2)C1=O [Example 104, 4-(2-Cyanophenyl)-2-phenyl-6-(2-pyridyl)-4,5-dihydro-1,2,4-triazin-3 (2H)-one] | 500 | 
12 | O=C1N(c2ccsc2)CC(c2ccccn2)=NN1c1ccccc1 [Example 105, 2-Phenyl-6-(2-pyridyl)-4-(thiophen-3-yl)-4,5-dihydro-1,2,4-triazin-3 (2H)-one] | 200 | 
13 | O=C1N(c2ccsc2)CC(c2ccccn2)=NN1c1ccccc1Br [Example 106, 2-(2-Bromophenyl)-6-(2-pyridyl)-4-(thiophen-3-yl)-4,5-dihydro-1,2,4-triazin-3 (2H)-one] | 100 | 
14 | COc1ccc(N2CC(c3ccccn3)=NN(c3ccccc3)C2=O)c(OC)c1 [Example 107, 4-(2,4-Dimethoxyphenyl)-2-phenyl-6-(2-pyridyl)-4,5-dihydro-1,2,4-triazin-3 (2H)-one] | 300 | 
15 | COc1ccccc1C1=NN(c2ccccc2Br)C(=O)N(c2ccsc2)C1 [Example 108, 2-(2-Bromophenyl)-6-(2-methoxyphenyl)-4-(thiophen-3-yl)-4,5-dihydro-1,2,4-triazin-3 (2H)-one] | 4000 | 
16 | O=C1N(c2cccnc2)CC(c2ccccn2)=NN1c1ccccc1 [Example 109, 2-Phenyl-6-(2-pyridyl)-4-(3-pyridyl)-4,5-dihydro-1,2,4-triazin-3 (2H)-one] | 300 | 

Row | Structure (SMILES) | IC50 [1] [nM] | anticonvulsant action (time-extending action until the convulsion takes place) [2]
17 | O=C1N(c2cccnc2)CC(c2ccccn2)=NN1c1ccccc1Br [Example 110, 2-(2-Bromophenyl)-6-(2-pyridyl)-4-(3-pyridyl)-4,5-dihydro-1,2,4-triazin-3 (2H)-one] | 100 | 
18 | N#Cc1ccccc1N1CC(c2ccccn2)=NN(c2ccccc2Br)C1=O [Example 111, 2-(2-Bromophenyl)-4-(2-cyanophenyl)-6-(2-pyridyl)-4,5-dihydro-1,2,4-triazin-3 (2H)-one] | 400 | 
19 | O=C1N(c2ccccc2)CC(c2ccccc2)=NN1c1ccccc1Br [Example 112, 2-(2-Bromophenyl)-4,6-diphenyl-4,5-dihydro-1,2,4-triazin-3 (2H)-one] | 300 | 
20 | O=C1N(c2ccccc2Br)CC(c2ccccc2)=NN1c1ccccc1 [Example 113, 4-(2-Bromophenyl)-2,6-diphenyl-4,5-dihydro-1,2,4-triazin-3 (2H)-one] | 7100 | 
21 | COc1ccccc1C1=NN(c2ccccc2)C(=O)N(c2ccccc2Br)C1 [Example 115, 4-(2-Bromophenyl)-6-(2-methoxyphenyl)-2-phenyl-4,5-dihydro-1,2,4-triazin-3 (2H)-one] | 7200 | 
22 | O=C1N(c2ccccn2)CC(c2ccccn2)=NN1c1ccccc1Br [Example 118, 2-(2-Bromophenyl)-6-(2-pyridyl)-4-(2-pyridyl)-4,5-dihydro-1,2,4-triazin-3 (2H)-one] | 30 | 
23 | O=C1N(c2ccccc2)CC(c2ncccn2)=NN1c1ccccc1 [Example 119, 2-Phenyl-4-phenyl-6-(2-pyrimidinyl)-4,5-dihydro-1,2,4-triazin-3 (2H)-one] | 4300 | 
24 | O=C1N(c2cccc([N+](=O)[O-])c2)CC(c2ccccn2)=NN1c1ccccc1Br [Example 121, 2-(2-Bromophenyl)-4-(3-nitrophenyl)-6-(2-pyridyl)-4,5-dihydro-1,2,4-triazin-3 (2H)-one] | 400 | 
25 | O=C1N(c2ccc(F)cc2)CC(c2ccccn2)=NN1c1ccccc1Br [Example 122, 2-(2-Bromophenyl)-4-(4-fluorophenyl)-6-(2-pyridyl)-4,5-dihydro-1,2,4-triazin-3 (2H)-one] | 200 | 
26 | O=Cc1cccc(N2CC(c3ccccn3)=NN(c3ccccc3Br)C2=O)c1 [Example 123, 2-(2-Bromophenyl)-4-(3-formylphenyl)-6-(2-pyridyl)-4,5-dihydro-1,2,4-triazin-3 (2H)-one] | 300 | 
27 | Cc1cccc(N2CC(c3ccccn3)=NN(c3ccccc3Br)C2=O)c1 [Example 124, 2-(2-Bromophenyl)-4-(3-tolyl)-6-(2-pyridyl)-4,5-dihydro-1,2,4-triazin-3 (2H)-one] | 200 | 
28 | CSc1ccc(N2CC(c3ccccn3)=NN(c3ccccc3Br)C2=O)cc1 [Example 125, 2-(2-Bromophenyl)-4-(4-thiomethoxyphenyl)-6-(2-pyridyl)-4,5-dihydro-1,2,4-triazin-3 (2H)-one] | 600 | 
29 | N#Cc1ccccc1N1N=C(c2ccccn2)CN(c2cccc([N+](=O)[O-])c2)C1=O [Example 127, 2-(2-Cyanophenyl)-4-(3-nitrophenyl)-6-(2-pyridyl)-4,5-dihydro-1,2,4-triazin-3 (2H)-one] | 400 | 
30 | N#Cc1ccccc1N1N=C(c2ccccn2)CN(c2cccc(N)c2)C1=O [Example 128, 2-(2-Cyanophenyl)-4-(3-aminophenyl)-6-(2-pyridyl)-4,5-dihydro-1,2,4-triazin-3 (2H)-one] | 100 | 
31 | O=C1N(c2ccccc2)CC(c2ncccn2)=NN1c1ccccc1Cl [Example 129, 2-(2-Chlorophenyl)-4-phenyl-6-(2-pyrimidinyl)-4,5-dihydro-1,2,4-triazin-3 (2H)-one.] | 3000 | 
